{"source": "patent US20010018445A1", "about": "“Pharmaceutical composition for the treatment of hepatocellular carcinoma” (TTY BIOPHARM COMPANY LIMITED, priority 2000, published 2001)", "key": {"[1]": {"conditions": "in water, methanol, ethanol or acetone; cited from earlier work"}, "angiogenesis": {"tested_on": "angiogenesis", "conditions": "U.S. Pat. Nos. 5,593,990 and 5,629,327; cited from earlier work"}, "hepatocellular carcinoma [2]": {"tested_on": "hepatocellular carcinoma", "assay": "Thalidomide treatment of two patients with metastatic and locally advanced hepatocellular carcinoma (Example 3)", "assay_type": "in vivo, human", "conditions": "thalidomide 100 mg twice daily", "experimental": "Thalidomide was administered 100 mg twice daily. They were subjected to serum alpha-fetoprotein test every 2-4 weeks and computed tomography or magnetic resonance image examination every 4-8 weeks."}, "[3]": {"tested_on": "basic fibroblast growth factor-induced angiogenesis", "conditions": "Anti-Cancer Drugs, 1996, 7, p.339-343; cited from earlier work"}, "[4]": {"tested_on": "tumor necrotic factor-alpha (TNF-I)", "conditions": "Journal of Infectious Diseases, 1993, 168, p. 408-414; cited from earlier work"}, "hepatocellular carcinoma [5]": {"tested_on": "hepatocellular carcinoma", "assay": "Clinical observation of thalidomide in hepatocellular carcinoma, summary statement on side effects", "assay_type": "in vivo, human", "conditions": "patients with metastatic hepatocellular carcinoma or where local treatment has failed", "source_text": "The subject invention utilizes thalidomide to treat metastatic hepatocellular carcinoma and hepatocellular carcinoma, where local treatment has failed.\nThe therapeutic efficacy of the pharmaceutical composition of the subject invention comprising thalidomide on the treatment of hepatocellular carcinoma has been supported by clinical observation as illustrated in the following examples."}, "[6]": {"conditions": "women who took thalidomide in the first trimester of pregnancy; cited from earlier work"}, "hepatocellular carcinoma [7]": {"tested_on": "hepatocellular carcinoma", "assay_type": "in vivo, human", "experimental": "FIGS. 1-4 show computerized abdominal tomography of a patient, before and after, treatment with thalidomide. […] The serum level of alpha-fetoprotein in the patient is 4335 μg/ml. […] The massive type index lesion at the left hepatic lobe shown in FIG. 3 has been reduced to the size of 3 cm×3 cm. The serum level of alpha-fetoprotein in the patient is 1501 μg/ml. In addition, the scan show the occurrence of ascitic fluid.\nA patient weighted 55 kg with medical history of hepatitis C was diagnosed with hepatocellular carcinoma in December 1998 and treated with transcatheter arterial chemoembolization. They were treated with transcatheter arterial chemoembolization again in March and June 1999. According to the computerized abdominal tomography and gastrointestinal track barium enema, hepatocellular carcinoma invasion of the right colon and duodenum was doubted. The patient was treated with radiation on the right liver lobe during July to September 1999. After one-month of treatment, the serum level of alpha-fetoprotein in the patient increased from 105 μg/ml, before treatment, to 535 μg/ml. […] The patient was treated with a forth transcatheter arterial chemoembolization. The serum level of alpha-fetoprotein in the patient was increased to 1572 μg/ml.\nThe serum level of alpha-fetoprotein in the patient was up to 4335 μg/ml. The liver function exacerbated that the total bilirubin was […], GOT/GPT was 253/115 IU and alkaline phosphase (ALP) was 239 unit/l. […] A capsule containing 100 mg of thalidomide was orally administered to the patient twice daily during the thalidomide treatment. […] However, ascitic fluid was found. The abdominal paracentesis evidenced that ascitic fluid was caused by spontaneous bacterial peritonitis. […] The patient was then administered with antibiotics for the treatment of spontaneous bacterial peritonitis. The patient was still treated with thalidomide to the present."}, "[8]": {"conditions": "after treatment with thalidomide"}}, "data": [{"molecule": "O=C1CCC(N2C(=O)c3ccccc3C2=O)C(=O)N1", "note": "(stereo not shown) [thalidomide, 2-(2,6-dioxo-3-piperidinyl)-1H-isoindolle-1,3(2H)-dione]", "values": [{"measurement": "solubility", "setting": "[1]", "value": "sparingly soluble"}, {"measurement": "inhibition of angiogenesis", "setting": "angiogenesis", "value": "could effectively inhibit"}, {"measurement": "serum alpha-fetoprotein level (FIGS. 6 and 7)", "setting": "hepatocellular carcinoma [2]", "value": "significant reduced"}, {"measurement": "inhibition of basic fibroblast growth factor-induced angiogenesis", "setting": "[3]", "value": "could effectively inhibit"}, {"measurement": "inhibition of tumor necrotic factor-alpha (TNF-I)", "setting": "[4]", "value": "could effectively inhibit"}, {"measurement": "side effects, such as arrest of bone marrow or hepatotoxicity", "setting": "hepatocellular carcinoma [5]", "value": "without significant side effects"}, {"measurement": "teratogenic effect", "setting": "[6]", "value": "would deliver terata, such as phocomelia"}, {"measurement": "hepatocellular carcinoma of the two liver lobes on follow-up MRI", "setting": "hepatocellular carcinoma [7]; after four weeks of treatment", "value": "significantly remitted"}, {"measurement": "most diffused hepatocellular carcinoma infiltrating left and right hepatic lobes (computerized abdominal tomography)", "setting": "hepatocellular carcinoma [7]; [8]", "value": "disappear"}, {"measurement": "variation of the serum level of alpha-fetoprotein (FIG. 5)", "setting": "hepatocellular carcinoma [7]; [8]", "value": "significantly decreased"}, {"measurement": "right upper quadrant tenderness", "setting": "hepatocellular carcinoma [7]; after two weeks of treatment, 100 mg orally twice daily", "value": "significantly relieved"}, {"measurement": "alkaline phosphase (ALP)", "setting": "hepatocellular carcinoma [7]; human, in vivo", "value": 233, "unit": "unit/l"}, {"measurement": "serum level of alpha-fetoprotein", "setting": "hepatocellular carcinoma [7]; one patient, 100 mg thalidomide capsule orally twice daily, after four weeks, 4335 μg/ml before treatment", "value": 1501, "unit": "µg/mL"}]}]}
